From article PMC7583830 (Molecules, 2020) come the findings set out here.

Where two headings read alike, the source gives them in different places. Where a SMILES comes first, the peptide text is derived from it. [ ]: non-standard residue; d: D form. The star is where a group is joined. DOTA = O=C(O)CN1CCN(CC(=O)O)CCN(CC(=O)*)CCN(CC(=O)O)CC1; 1Nal = N[C@@H](Cc1cccc2ccccc12)C(=O)O; NMeNle = CCCC[C@H](NC)C(=O)O

Data set [1] concerns the target T1, human CCK2R (Homo sapiens, UniProt P32239).
T1 construct: expressed in transfected cells; host or cells: A431 human epidermoid carcinoma cells, stably transfected (plasmid pCR3.1); provided by Dr. Luigi Aloj
T1 sequence (P32239 1-447): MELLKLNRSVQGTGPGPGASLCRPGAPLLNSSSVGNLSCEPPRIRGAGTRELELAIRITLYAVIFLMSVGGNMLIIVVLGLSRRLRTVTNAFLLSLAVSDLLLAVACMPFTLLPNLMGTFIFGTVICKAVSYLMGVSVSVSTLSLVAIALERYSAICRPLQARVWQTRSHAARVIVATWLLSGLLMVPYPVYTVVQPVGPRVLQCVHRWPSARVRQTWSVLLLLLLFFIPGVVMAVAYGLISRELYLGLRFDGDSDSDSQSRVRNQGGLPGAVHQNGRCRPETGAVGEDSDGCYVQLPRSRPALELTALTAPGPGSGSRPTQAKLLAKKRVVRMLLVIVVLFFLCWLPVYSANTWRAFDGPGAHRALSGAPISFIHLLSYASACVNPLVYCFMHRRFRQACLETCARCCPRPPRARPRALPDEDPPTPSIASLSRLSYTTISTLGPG
The experiment in a line: Competition assay against [125I][3-iodo-Tyr12,Leu15]gastrin-I on A431-CCK2R cells. In kind it is binding. The following applies: non-labeled peptide, displacement of [125I][3-iodo-Tyr12,Leu15]gastrin-I, 1 h RT. The procedure:
[^125I][3-iodo-Tyr^12,Leu^15]gastrin-I at high molar activity was obtained by HPLC purification and stored in aliquots at −25 °C. Binding assays were carried out using 96-well filter plates (MultiScreenHTS-FB, Merck Group, Darmstadt, Germany) pre-treated with 10 mM TRIS/139 mM NaCl pH 7.4 (2 × 250 µL). For the assay, 200,000–400,000 A431-CCK2R cells per well were prepared in 20 mM HEPES buffer pH 7.4 containing 10 mM MgCl2, 14 µM bacitracin and 0.5% BSA. The cells (n = 3) were incubated with increasing concentrations of the peptide conjugates (0.0003–30,000 nM) and [^125I][3-iodo-Tyr^12,Leu^15]gastrin-I (50,000 cpm) for 1 h at RT. Incubation was interrupted by filtration of the medium and rapid rinsing with ice-cold 10 mM TRIS/139 mM NaCl pH 7.4 (2 × 200 µL) and the filters were measured in the gamma-counter. Half maximal inhibitory concentration (IC50) values were calculated following nonlinear regression with Origin software (Microcal Origin 6.1, Northampton, MA, USA).

The nature of data set [2]: Protein binding in human serum by size exclusion chromatography. In kind it is in vitro ADME. Conditions: 24 h incubation. The procedure:
For protein binding assessment, the radiolabeled DOTA-peptides were incubated in fresh human serum at 37 °C (500 pmol/mL, n = 2). After 1, 4 and 24 h of incubation, two samples were taken for each time point and analyzed by Sephadex G-50 size-exclusion chromatography (GE Healthcare Illustra, Little Chalfont, UK). The percentage of protein binding was determined by measuring the column and the eluate with the gamma-counter.

The nature of data set [3]: Stability in fresh human serum (radio-HPLC). The class given is in vitro ADME. Conditions: 24 h incubation, 37 °C. The procedure: In vitro stability studies for the characterization of the metabolic stability of the radiolabeled peptide analogs in human serum were carried out with [^177Lu]Lu-1, [^177Lu]Lu-M1, [^177Lu]Lu-M2, [^177Lu]Lu-M3 and [^177Lu]Lu-M4 (n = 2). Additional stability studies in rat liver and kidney homogenates were performed for [^177Lu]Lu-1 (n = 2). Tissue homogenates were prepared from dissected organs by homogenization for 1 min at RT (IKA-Werke, Staufen, Germany) in 20 mM HEPES buffer pH 7.3 (30% v/v). The radioligands were incubated in the different media at a concentration of 500 pmol/mL (corresponding to an activity of 6–11 MBq). After incubation at 37 °C at different time points for up to 24 h, a 100 µl sample was taken in duplicates and analyzed by HPLC. Samples obtained from human serum and rat homogenates were treated with ACN at a ratio of 1:1.5 (v/v) to precipitate proteins, centrifuged (14,000 rpm, 2 min, centrifuge 5424, Eppendorf AG, Germany) and diluted with water at a ratio of 1:1 (v/v). A 100 µl aliquot of this solution was injected into the radio HPLC system. The degradation of the radioligand was evaluated based on the radiochemical purity after radiolabeling and the percentage of intact radiopeptide observed during incubation in the different media.

Data set [4] in a line: Distribution coefficient (logD) in octanol/PBS. In kind it is physicochemical. On the procedure: The mixture was vigorously vortexed at room temperature over a period of 15 min using a small shaker (MS3 Basic, IKA, Staufen, Germany) with speed of 1500 rpm.
A short description of data set [5]: Metabolic stability in vivo and radiometabolites (radio-HPLC of blood, urine, liver, kidney). More on the design: species or system BALB/c mice. The procedure:
Metabolic biodistribution studies were performed in accordance with the ethical standards of the institution and approved by the Austrian Ministry of Science (BMWFW-66.011/0072-V/3b/2019). These studies were carried out in 5- to 7-week-old female BALB/c mice (n = 3) injected with [^177Lu]Lu-1 via a lateral tail vein. To allow monitoring of the metabolites by radio-HPLC, mice were injected with 30 MBq corresponding to 0.8 nmol total peptide. The mice were euthanized by cervical dislocation after different time points of 10 min, 30 min and 1 h p.i. and the urine and a venous blood sample were collected at the time of sacrifice. Liver and kidneys were dissected and homogenized in 20 mM HEPES buffer pH 7.3 at a ratio of 1:1 (v/v) with an Ultra-Turrax T8 homogenizer (IKA-Werke, Staufen, Germany) for 1 min at RT. Before radio-HPLC analysis, the samples (except urine) were treated with ACN at a ratio of 1:1 (v/v) to precipitate proteins, centrifuged at 2000× g for 2 min and diluted with water at a ratio of 1:1 (v/v). For HPLC analysis of the samples, the analytical HPLC system described above with a flow rate of 1 mL/min was used together with the following optimized water/ACN/0.1% TFA gradient to allow a better separation of [^177Lu]Lu-1 and the different radiometabolites: 0–7 min 1–7% ACN, 7–8 min 7–10% ACN, 8–18 min 10–18% ACN, 18–20 min 18–32% ACN, 20–27 min 32% ACN, 27–37 min […], 37–40 min 80% ACN, 40–40.1 min 80–1% ACN, 40.1–45 min 1% ACN. Urine was measured with the low-sensitivity loop of the radiodetector. The remaining samples were analyzed with the high-sensitivity loop due to the lower radioactivity present in blood, liver and kidney homogenate. To quantify the percentage of intact [^177Lu]Lu-1 and [^177Lu]Lu-M1 showing some overlap in the radiochromatogram when using the high-sensitivity loop of the radiodetector, the two radiopeptides were co-injected at different known ratios to enable a more accurate separation and integration of the two peaks (see supporting Figure S4). Mice from the metabolic biodistribution studies were subjected to a further dissection of all remaining tissues (blood, lung, heart, femur, spleen, muscle, intestine, pancreas and stomach). All organs, also including liver and kidneys, were weighed, and their radioactivity was measured in the gamma counter together with a standard and the residual body. To quantify the uptake of radioactivity in liver and kidneys, a part of liver and kidney homogenate was measured in the gamma counter to extrapolate the radioactivity for the whole organ.

With `CCCC[C@@H](C(=O)N[C@@H](CC(=O)O)C(=O)N[C@@H](Cc1cccc2ccccc12)C(=O)O)N(C)C(=O)[C@H](Cc1c[nH]c2ccccc12)NC(=O)CNC(=O)[C@H](Cc1ccc(O)cc1)NC(=O)[C@@H]1CCCN1C(=O)[C@@H](CCC(=O)O)NC(=O)CN1CCN(CC(=O)O)CCN(CC(=O)O)CCN(CC(=O)O)CC1` [M1, DOTA-DGlu-Pro-Tyr-Gly-Trp-(N-Me)Nle-Asp-1Nal-COOH] ({DOTA}-[dE]PYGW[NMeNle]D[1Nal]-OH), the half-inhibitory concentration (IC50) in data set [1] is above 1000 nM.

On to `CCCC[C@@H](C(=O)N[C@@H](CC(=O)O)C(=O)O)N(C)C(=O)[C@H](Cc1c[nH]c2ccccc12)NC(=O)CNC(=O)[C@H](Cc1ccc(O)cc1)NC(=O)[C@@H]1CCCN1C(=O)[C@@H](CCC(=O)O)NC(=O)CN1CCN(CC(=O)O)CCN(CC(=O)O)CCN(CC(=O)O)CC1` [M2, DOTA-DGlu-Pro-Tyr-Gly-Trp-(N-Me)Nle-Asp] ({DOTA}-[dE]PYGW[NMeNle]D-OH; C-terminus assumed), for which the IC50 in data set [1] was above 1000 nM.

On to `CCCC[C@@H](C(=O)O)N(C)C(=O)[C@H](Cc1c[nH]c2ccccc12)NC(=O)CNC(=O)[C@H](Cc1ccc(O)cc1)NC(=O)[C@@H]1CCCN1C(=O)[C@@H](CCC(=O)O)NC(=O)CN1CCN(CC(=O)O)CCN(CC(=O)O)CCN(CC(=O)O)CC1` [M3, DOTA-DGlu-Pro-Tyr-Gly-Trp-(N-Me)Nle] ({DOTA}-[dE]PYGW[NMeNle]-OH; C-terminus assumed), for which, in data set [1], the IC50 is above 1000 nM.

On to `O=C(O)CC[C@@H](NC(=O)CN1CCN(CC(=O)O)CCN(CC(=O)O)CCN(CC(=O)O)CC1)C(=O)N1CCC[C@H]1C(=O)N[C@@H](Cc1ccc(O)cc1)C(=O)NCC(=O)N[C@@H](Cc1c[nH]c2ccccc12)C(=O)O` [M4, DOTA-DGlu-Pro-Tyr-Gly-Trp] ({DOTA}-[dE]PYGW-OH; C-terminus assumed), for which, in data set [1], the concentration for half-maximal inhibition (IC50) is above 1000 nM.

For `CCCC[C@@H](C(=O)N[C@@H](CC(=O)O)C(=O)N[C@@H](Cc1cccc2ccccc12)C(=O)O)N(C)C(=O)[C@H](Cc1c[nH]c2ccccc12)NC(=O)CNC(=O)[C@H](Cc1ccc(O)cc1)NC(=O)[C@@H]1CCCN1C(=O)[C@@H](CCC(=O)O)NC(=O)CN1CCN(CC(=O)O)CCN(CC(=O)O)CCN(CC(=O)O)CC1` [[^177Lu]Lu-M1, metal not drawn] ({DOTA}-[dE]PYGW[NMeNle]D[1Nal]-OH), in data set [2], the unbound share (fraction unbound) was 0.546. In addition, the values for the intact radiopeptide in data set [3] and in data set [3] (listed as radiolabeled M1) were 89.1 ± 1.3% and 89%, respectively. The logD in data set [4] (octanol/PBS pH 7.4, read-out: logD) is -4.07 ± 0.35. Besides, the “percentage of intact radiopeptide / radiometabolite” value is listed as 9.9% in data set [5] (blood, 30 min p.i., mice injected i.v. with [177Lu]Lu-1); 5.8% in data set [5] (blood, 60 min p.i., mice injected i.v. with [177Lu]Lu-1); 2.5% in data set [5] (kidney, 30 min p.i.); 4.8% in data set [5] (liver, 30 min p.i.); 4.6% in data set [5] (liver, 60 min p.i.); 1.4% in data set [5] (urine, 30 min p.i.). Besides, the amount of radiometabolite in data set [5] (blood, different time points up to 1 h p.i.) is listed as below 10%.

For the compound `O=C(O)CC[C@@H](NC(=O)CN1CCN(CC(=O)O)CCN(CC(=O)O)CCN(CC(=O)O)CC1)C(=O)N1CCC[C@H]1C(=O)N[C@@H](Cc1ccc(O)cc1)C(=O)NCC(=O)N[C@@H](Cc1c[nH]c2ccccc12)C(=O)O` [[^177Lu]Lu-M4, metal not drawn] ({DOTA}-[dE]PYGW-OH; C-terminus assumed), the logD in data set [4] (pH 7.4) was -4.19 ± 0.3. Further, in data set [5] (mouse, in vivo), the amount of radiometabolite was below 3%.

For the compound `O=C(O)CC[C@@H](NC(=O)CN1CCN(CC(=O)O)CCN(CC(=O)O)CCN(CC(=O)O)CC1)C(=O)N1CCC[C@H]1C(=O)N[C@@H](Cc1ccc(O)cc1)C(=O)NCC(=O)O` [[^177Lu]Lu-M5, metal not drawn] ({DOTA}-[dE]PYG-OH; C-terminus assumed), in data set [5] (mouse, in vivo), the amount of radiometabolite is on record as below 10%.

As to `O=C(O)CC[C@@H](NC(=O)CN1CCN(CC(=O)O)CCN(CC(=O)O)CCN(CC(=O)O)CC1)C(=O)N1CCC[C@H]1C(=O)N[C@@H](Cc1ccc(O)cc1)C(=O)O` [[^177Lu]Lu-M6, metal not drawn] ({DOTA}-[dE]-Pro-Tyr-OH; C-terminus assumed), the amount of radiometabolite in data set [5] (mouse, in vivo) is recorded as ~ 20%.

Turning to `CCCC[C@@H](C(=O)N[C@@H](CC(=O)O)C(=O)N[C@@H](Cc1cccc2ccccc12)C(N)=O)N(C)C(=O)[C@H](Cc1c[nH]c2ccccc12)NC(=O)CNC(=O)[C@H](Cc1ccc(O)cc1)NC(=O)[C@@H]1CCCN1C(=O)[C@@H](CCC(=O)O)NC(=O)CN1CCN(CC(=O)O)CCN(CC(=O)O)CCN(CC(=O)O)CC1` [compound 1, DOTA-DGlu-Pro-Tyr-Gly-Trp-(N-Me)Nle-Asp-1Nal-NH2] ({DOTA}-[dE]PYGW[NMeNle]D[1Nal]-NH2), the half-maximal inhibitory concentration (IC50) in data set [1] came to 0.69 ± 0.09 nM.
